Legend:
human RORγt LBD = molecular target: T1, human RORγt LBD (Homo sapiens, UniProt P51449); test: RORγt (LBD) reporter assay in HEK293T cells; type: cell-based; settings: for RORγt (LBD) Reporter Assay, % inhibition @ 6 μM: 6 μM compound; for inhibition at 6 µM: HEK-293T, read-out: RORγt (LBD) Reporter Assay, % inhibition @ 6 μM, 6 μM compound
T1 construct: expressed in transfected cells; host or cells: HEK293T
T1 sequence (P51449 258-518): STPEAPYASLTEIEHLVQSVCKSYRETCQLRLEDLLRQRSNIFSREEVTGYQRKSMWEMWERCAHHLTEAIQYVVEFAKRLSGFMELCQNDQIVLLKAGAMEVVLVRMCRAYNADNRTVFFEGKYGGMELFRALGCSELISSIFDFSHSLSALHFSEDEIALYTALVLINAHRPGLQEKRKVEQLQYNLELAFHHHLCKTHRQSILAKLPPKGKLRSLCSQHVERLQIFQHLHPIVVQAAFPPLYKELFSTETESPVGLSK
Excerpt: RORγt (LBD) Reporter Assay
Cells used in the assay were co-transfected with two constructs. The first construct, pBIND-RORγt LBD, contained the wild type human RORγt LBD fused to the DNA binding domain of the GAL4 protein. The second construct, pGL4.31 (Promega Cat no. C935A), contained multiple GAL4 responsive DNA elements upstream of firefly luciferase. […] The mutant construct was called pBIND-RORγt-AF2.
The pBIND vector contains the GAL4 DNA Binding Domain (GAL4 DBD) and the renilla luciferase gene under control of the SV40 promoter. Renilla luciferase expression serves as a control for transfection efficiency and cell viability.
The reporter assay was performed by transiently transfecting HEK293T cells with 5 μg of pBIND-RORγt LBD or pBIND-RORγt LBD-AF2 and 5 μg pGL4.31 (Promega Cat no. C935A) using Fugene 6 (Invitrogen Cat no. E2691) at a 1:6 ratio of DNA:Fugene 6 in a T-75 flask in which cells were at least 80% confluent. Twenty four hours after bulk transfection, cells were plated into 96-well plates at 50,000 cells/well in phenol-red free DMEM containing 5% Lipid Reduced FCS and Pen/Strep. Six hours after plating, cells were treated with compounds for 24 hours. Media was removed and cells were lysed with 50 μL 1× Glo Lysis Buffer (Promega). Dual Glo Luciferase Reagent (50 μL/well) was then added and firefly luciferase luminescence was read on an Envision after a ten minute incubation. Finally, Stop and Glo reagent (50 μL/well) was added and renilla luciferase luminescence was read on an Envision after a ten minute incubation. […] Agonist compounds increase RORγt-driven luciferase expression, and antagonist or inverse agonist compounds decrease luciferase expression.

[1] = tested on: IL-17 production by CD4 T cells; test: Human Th17 assay; type: cell-based; settings: Homo sapiens, CD4+ T, IL-17 production by human CD4 T cells
Experimental: The human Th17 assay tests the effect of RORγt modulatory compounds on IL-17 production by CD4 T cells under conditions which favor Th17 differentiation. Total CD4^+ T cells were isolated from the peripheral blood mononuclear cells (PBMC) of healthy donors using a CD4^+ T cell isolation kit II, following the manufacturer's instructions (Miltenyi Biotec). […] 50 μL of compound at titrated concentrations in DMSO were added into each well at final DMSO concentration at 0.2%. Cells were incubated for 1 hour, then 50 μL of Th17 cell differentiation medium was added to each well. The final concentrations of antibodies and cytokines (R&D Systems) in differentiation medium were: 3×10^6/mL anti-CD3/CD28 beads (prepared using human T cell activation/expansion kit, Miltenyi Biotec), 10 μg/mL anti-IL4, 10 μg/mL anti-IFNγ, 10 ng/mL IL1β, 10 ng/mL IL23, 50 ng/mL IL6, 3 ng/mL TGFβ and 20 U/mL IL2. Cells were cultured at 37° C. and 5% CO2 for 3 days. Supernatants were collected and the accumulated IL-17 in culture was measured by using MULTI-SPOT® Cytokine Plate following manufacture's instruction (Meso Scale Discovery). The plate was read using Sector Imager 6000, and IL-17 concentration was extrapolated from the standard curve. The IC50s were determined by GraphPad.

[2] = molecular target: T2, human RORγt ligand binding domain (RORγt LBD) (Homo sapiens, UniProt P51449); test: RORγt ThermoFluor assay (ligand binding affinity from protein thermal stability)
T2 construct: His-tag (N); TurboTEV protease cleavage site (ENLYFQG) (N); made in house; host or cells: E. coli (pHIS1, modified pET vector)
T2 sequence (P51449 with tags, fused parts or gaps): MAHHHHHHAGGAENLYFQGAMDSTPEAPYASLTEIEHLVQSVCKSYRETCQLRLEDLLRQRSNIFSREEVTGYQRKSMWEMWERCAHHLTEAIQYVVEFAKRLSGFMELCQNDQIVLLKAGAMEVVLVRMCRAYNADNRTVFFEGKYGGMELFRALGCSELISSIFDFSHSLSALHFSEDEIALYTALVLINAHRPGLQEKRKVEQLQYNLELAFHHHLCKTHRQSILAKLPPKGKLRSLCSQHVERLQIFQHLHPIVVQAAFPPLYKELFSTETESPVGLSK
Experimental: This approach is applicable to a wide variety of systems, and rigorous in theoretical interpretation through quantitation of equilibrium binding constants (KD).
The shift in the melting point described as a ΔTm is proportional to the concentration and affinity of the ligand.
RORγt ThermoFluor® Assay Construct
Protein and compound solutions are dispensed into black 384-well polypropylene PCR microplates (Abgene) and overlayed with silicone oil (1 μL, Fluka, type DC 200) to prevent evaporation.
Bar-coded assay plates are robotically loaded onto a thermostatically controlled PCR-type thermal block and then heated at a typical ramp-rate of 1° C./min for all experiments. Fluorescence was measured by continuous illumination with UV light (Hamamatsu LC6) supplied via fiber optic and filtered through a band-pass filter (380-400 nm; >6 OD cutoff). Fluorescence emission of the entire 384-well plate was detected by measuring light intensity using a CCD camera (Sensys, Roper Scientific) filtered to detect 500±25 nm, resulting in simultaneous and independent readings of all 384 wells. Images were collected at each temperature, and the sum of the pixel intensity in a given area of the assay plate was recorded versus temperature. Reference wells contained RORγt without compounds, and the assay conditions were as follows: • 0.065 mg/mL RORγt • 60 μM 1,8-ANS • 100 mM Hepes, pH 7.0 • 10 mM NaCl • 2.5 mM GSH • 0.002% Tween-20
Project compounds were arranged in a pre-dosed mother plate (Greiner Bio-one) wherein compounds are serially diluted in 100% DMSO by 1:2 from a high concentration of 10 mM over 12 columns within a series (column 12 is a reference well containing DMSO, no compound). The compounds were robotically dispensed directly into assay plates (1×=[…]) using a Hummingbird capillary liquid handling instrument (Digilab). Following compound dispense, protein and dye in buffer was added to achieve the final assay volume of 3 μL, followed by 1 μL of silicone oil.

IC50 (human RORγt LBD) [µM]	RORγt (LBD) Reporter Assay, % inhibition @ 6 μM (human RORγt LBD) [%]	IC50 [1] [µM]	Kd [2] [µM]	inhibition at 6 µM (human RORγt LBD) [%]	Compound
0.081	98	0.037	0.019	–	COc1nc2ccc(C(O)(c3ccc(Cl)cc3)c3cncn3C)cc2c(Cl)c1Cc1ccc(C(F)(F)F)nc1 (single isomer, unassigned) [Example 39c]
~0.08	63	0.0023	0.0003	–	COc1nc2ccc(C(O)(c3ccc(C)nc3C)c3cnnn3C)cc2c(Cl)c1Cc1ccc(F)cc1 (single isomer, unassigned) [Example 48c, (4-Chloro-3-(4-fluorobenzyl)-2-methoxyquinolin-6-yl)(2,6-dimethylpyridin-3-yl)(1-methyl-1H-1,2,3-triazol-5-yl)methanol]
0.098	98	0.049	0.0041	–	COc1nc2ccc(C(O)(c3ccc(C(F)(F)F)cc3)c3cccnc3)cc2c(Cl)c1Cc1ccc(-n2cccn2)cc1 (single isomer, unassigned) [Example 162c]
0.072	–	0.11	0.066	92	COc1nc2ccc(C(O)(c3ccc(Cl)cc3)c3cncn3C)cc2c(Cl)c1Cc1ccc(C(F)(F)F)nc1 (centres unmarked) [Example 39a]
0.31	–	0.25	0.02	90	COc1nc2ccc(C(O)(c3ccc(C(F)(F)F)cc3)c3cccnc3)cc2c(Cl)c1Cc1ccc(-n2cccn2)cc1 (centres unmarked) [Example 162a]

Source: patent publication US9284308B2, “Methylene linked quinolinyl modulators of RORγt” (Janssen Pharmaceutica NV, priority 2013, dated 2016)
